Here are results for one compound from patent US8759073B2, “Method for effectively controlling harmful organisms in large-scale culture of microalgae” (ENN Science & Technology Development Co., Ltd., priority 2009, dated 2014).

The structures appear in SMILES notation. Entries after “also recorded” stand apart in the source; their conditions may differ.

One data set concerns Dunaliella tertiolecta. Briefly: Growth of cultured algae after treatment, 120 L bubbling reactor. The data set is classed as cell-based. The settings on record: Example 1; CO2 intermittently pH 6.0-6.5 for 2 days, salinity decreased by 1%. The source says:
Salinity was reduced by 1% (e.g. from 9% to 8%) by way of dilution with water. Then air was sufficiently aerated.

The test system of a further data set is Oxyrrhis. Description: Control of Oxyrrhis contamination in microalgae culture, microscope examination. It is filed as cell-based, Oxyrrhis sp. From the text: If the contaminated alga liquid is identified as acid tolerant contamination, pH value is raised up with alkalis in the culture system of the microalgae and maintained for a period of time. The pH value cannot be higher than the maximal tolerable pH of the microalgae. […] In an embodiment, said alkali can be ammonia. In an embodiment, said alkali can be NaOH. In an embodiment, said alkali can be 1M NaOH. Depending on different pH requirements and different culture systems, alkalis with different concentrations can be used according to the agitation condition, as long as the transient pH is not too high to be harmful to microalgae, and dilution of the cell concentration in the culture system (caused by adding too much alkali solution) should also be avoided. […] In an embodiment, the pH of the culture system is adjusted to 11.5-12.0 with 1M NaOH or 1M ammonia. In an embodiment, the pH of the culture system is adjusted to 11.0-11.8 or 8.0-11.0 with 1M NaOH or 1M ammonia. In an embodiment, the pH of the culture system is adjusted to 8.0-11.0, 11.5-12.0 or 11.0-11.8 and maintained for 3 hours.
Microscope examination is always used as one of the bases for determining the growth status in the process of microalgae culture.
(§1) Chlorella sp. (purchased from FACHB collection, Wuhan Aquatic Research Institure, Chinses Academy of Sciences) was cultured in a 320 L bubbling reactor (manufactured by Longfang Jiangchuan plexiglass Co. Ltd., φ300 mm×2 m) out-of-doors under a sunlight film. The culture condition included: a temperature of about 25 °C, a humidity of 60%-80%, and an illumination of 8000-20000 lux. Modified SM (see Table 2) (pH 7.0-9.0 for the normal culture) was used. […] Then, CO2 was aerated to adjust pH to be 7.0-8.0.
(§2) Chlorella sp. (obtained from Jinan University) was cultured in a 320 L bubbling reactor (manufactured by Longfang Jiangchuan plexiglass Co. Ltd., φ300 mm×2 m) out-of-doors under a sunlight film (with a temperature of about 25 °C, a humidity of 60%-80%, and an illumination of 8000-20000 lux). Modified SM medium (see Table 2) was used. When Amoeba, Oxyrrhis and ciliate contaminations were observed is with an oil immersion lens (Nikon fluorescent invert microscope Ti series), pH was adjusted to 11.0-11.8 with 1M NaOH. […] Then, CO2 was aerated continuously to saturation (pH 5.6). […] Then air was sufficiently aerated.
Chlorococcum sp. (obtained from Qingdao Marine Institute) was cultured in a 60 L glass plate reactor (manufactured by Longfang Jiangchuan plexiglass Co. Ltd., OP=10 cm) under a sunlight film (with a temperature of about 25 °C, a humidity of 60%-80%, and an illumination of 8000-20000 lux) (pH 8.0-9.0 for the normal culture). Modified BG11 medium (see Table 3) was used. […] Then CO2 was aerated and pH was adjusted to 7.0-8.0.
Chlorococcum sp. (obtained from Qingdao Marine Institute) was cultured in a 60 L glass plate reactor (manufactured by Longfang Jiangchuan plexiglass Co. Ltd., OP=10 cm) under a sunlight film (with a temperature of about 25 °C, a humidity of 60%-80%, and an illumination of 8000-20000 lux) (pH 8.0-9.0 for the normal culture). Modified BG11 medium (see Table 3) was used. […] One hour later, CO2 was aerated to saturation (about pH 5.6) for 24 hour continuously. […] Then air was sufficiently aerated.

For a further data set, the system named is Chlorella sp. Description: Growth of cultured algae after treatment, 320 L bubbling reactor. The protocol: pH of the normally cultured microalgae is adjusted into various ranges. The growth rate of the microalgae is measured and their appearance is observed under a microscope.
as §1
Chlorella sp. (purchased from FACHB collection, Wuhan Aquatic Research Institure, Chinses Academy of Sciences) was cultured in a 320 L bubbling reactor (manufactured by Longfang Jiangchuan plexiglass Co. Ltd., φ300 mm×2 m) out-of-doors under a sunlight film. Modified SM medium (see Table 2) (pH 7.0-9.0 for the normal culture) was used. The culture condition included: a temperature of about 25 °C, a humidity of 60%-80%, and an illumination of 8000-20000 lux. […] Then air was sufficiently aerated, and pH was raised to 7.0-7.5 after 4 hours.
as §2
Chlorella sp. (purchased from FACHB collection, Wuhan Aquatic Research Institure, Chinses Academy of Sciences) was cultured in a 320 L bubbling reactor (manufactured by Longfang Jiangchuan plexiglass Co. Ltd., φ300 mm×2 m) out-of-doors under a sunlight film. Modified SM medium (see Table 2) (pH 7.0-9.0 for the normal culture) was used. The culture condition included: a temperature of about 25 °C, a humidity of 60%-80%, and an illumination of 8000-20000 lux. […] Then CO2 was aerated and pH was adjusted to 7.0-8.0.
Chlorella sp. (obtained from Jinan University) was cultured in a 320 L bubbling reactor (manufactured by Longfang Jiangchuan plexiglass Co. Ltd., φ300 mm×2 m) out-of-doors under a sunlight film (with a temperature of about 25 °C, a humidity of 60%-80%, and an illumination of 8000-20000 lux). Modified SM medium (see Table 2) was used. […] Then CO2 was aerated to saturation (pH 5.6) for 24 hours continuously. […] Then air was sufficiently aerated.

For another data set, the system named is diatom. Description: Control of diatom contamination in culture of Chlorococcum sp., microscope examination. The data set is classed as cell-based. The settings on record: Example 8. The source says:
Chlorococcum sp. […] Modified BG11 medium (see Table 3) was used. […] Then air was sufficiently aerated.

With `O=C=O` [CO2, carbon dioxide], the “impact on the growth of algae” value with Dunaliella tertiolecta is “not affected essentially; also recorded: little impact on the growth of algae”. In addition, the “Oxyrrhis, result of microscope examination” value in the data set on Oxyrrhis (Example 4, after 1M NaOH pH 11.0-11.8 1 h, CO2 to saturation (pH 5.6) 24 hours) is recorded as “no Amoeba or Oxyrrhis”; with Oxyrrhis (Example 7, after 1M NaOH pH 11.5-12.0 1 h, CO2 to saturation (about pH 5.6) 24 hour) it was “no Amoeba or Oxyrrhis”; in the data set with Oxyrrhis (Example 10, after 1M NaOH pH 11.5-12.0 1 h, CO2 to saturation (about pH 5.8) 23 hour), “no Amoeba or Oxyrrhis”; in the data set on Oxyrrhis (Example 12, after 1M ammonia pH 9.0 1 h, CO2 to saturation (pH 5.6) 24 hours), “no Amoeba or Oxyrrhis”; in the data set on Oxyrrhis (Example 14, after 1M ammonia pH 9.0 1 h, CO2 to saturation (about pH 5.6) 24 hour), “no Amoeba or Oxyrrhis”; in the data set on Oxyrrhis (Example 15, after 1M ammonia pH 10.0 1 h, CO2 to saturation (about pH 5.8) 23 hour) it was “no Amoeba or Oxyrrhis”. For the same compound, the “growth of the algae” value in the data set with Chlorella sp. is reported as “almost not affected”. The “time until algae started to grow (FIG. 4)” value in the data set on Chlorella sp. is recorded as “About 28 hours”. Further, the “time until algae started to grow after recovery of pH7.0 or above” value in the data set on Chlorella sp. (pH 7) is reported as 24 hours. Besides, the “time until algae resumed to grow after air aeration” value in the data set with Chlorella sp. (pH 9) is recorded as “Twenty-four”. Also, in the data set with diatom (CO2 aerated continuously to saturation (about pH 5.6), thirty-six hours), the “diatom, result of microscope examination” value is “some diatom lost intracellular pigment and only empty shells were left”. In addition, in the data set on diatom (saturated CO2 36 hours, then air sufficiently aerated), the “residual contaminating diatom after air aeration” value was “reduced activity, grew slowly, and would not become dominant algae; also recorded: grew slowly”.
